Key:
[1] = test system: GBM cell lines U251, LN229, and U87; assay: Live cell count of GBM cell lines treated with MGO and TTFields (Inovitro system); type: cell-based
Text: At the experimental endpoint cells were visualized by microscopy, counted, and taken for protein or RNA extraction for further analysis.
GBM cell lines U251, LN229, and U87 were used in this Example. […] The Inovitro™ system was operated with low intensity (1-3 V/cm) and medium frequency (200 kHz) alternating electric fields, which have a selective antimitotic effect on cancer cells. […] In addition, the arrangement of alpha and gamma tubulin was visualised by immunofluorescence.
The results of each experiment are indicated as cell count (live cells).

GBM cells = assay: Preliminary work: MGO-induced glycation and invasion of GBM cells; type: cell-based
Text: Glioblastoma (GBM) is a highly aggressive and invasive brain tumor.

CC(=O)C=O [MGO, methylglyoxal]
proliferation of cells (cell count) ([1]; 0.1 mM MGO alone, FIG. 2): increased proliferation | effect of TTFields on proliferation of cells under MGO ([1]; 0.1 mM MGO plus TTFields (200 kHz, 1-3 V/cm), FIG. 2): reduce the increased proliferation | rate of apoptosis with additional TTFields ([1]; 0.3 mM MGO over the entire period plus TTFields (200 kHz, 1-3 V/cm)): enhanced | rate of apoptosis ([1]; 0.3 mM MGO over the entire period, alone, FIGS. 3-4): increased rate of apoptosis | combination effect of concomitant TTFields and MGO (live cell count) ([1]; Example 2, experiments A-H: 0.1 or 0.3 mmol/L MGO, TTFields 24-72 h, U251, LN229, U87, FIGS. 5-12): synergistic effect | glycation of cell surface proteins (GBM cells): induces glycation of cell surface proteins | invasion / phenotype (GBM cells; associated with MGO-induced glycation): increased invasion
